Here are results for 5 compounds from patent publication EP0110570A2, “Triazole antifungal agents” (Pfizer Limited, priority 1982, dated 1984).

The test system of the experiment is Candida albicans. Kind of experiment: In vivo protection of mice inoculated with Candida albicans (PD50). The following applies: read-out: PD50. As to the method:
The in vivo evaluation of the compounds can be carried out at a series of dose levels by intraperitoneal or intravenous injection or by oral administration, to mice which are inoculated with a strain of Candida albicans. Activity is based on the survival of a treated group of mice after the death of an untreated group of mice following 48 hours observation. The dose level at which the compound provides 50% protection against the lethal effect of the infection (PD50) is noted.
Using the test method described previously in the text, the following PD50 values (mg./kg.) were obtained in mice infected with Candida albicans:-

Setting [1] is: mice infected with Candida albicans, dose level giving 50% protection against the lethal effect of the infection, survival after 48 hours observation, route not specified (intraperitoneal, intravenous or oral).

Like-named read-outs stand apart in the source and are kept apart here.

Take `FC(F)(F)C(Cl)(Cn1cncn1)c1ccc(Cl)cc1` (centres unmarked) [Example 2]: the ED50 under setting [1] stood at 0.6 mg/kg.
`Fc1ccc(C(Cl)(Cn2cncn2)C(F)(F)F)cc1` (centres unmarked) [Example 3]: the ED50 under setting [1] turned out to be 0.6 mg/kg.
For the compound `Fc1ccc(C(Cl)(Cn2cncn2)C(F)(F)C(F)(F)C(F)(F)F)c(F)c1` (centres unmarked) [Example 5], the ED50 (Candida albicans, 48 h) was < 1 mg/kg.
Take `Fc1ccc(C(Cl)(Cn2cncn2)C(F)(F)C(F)(F)F)cc1` (centres unmarked) [Example 4]: the ED50 under setting [1] is < 1 mg/kg.
Consider `Fc1ccc(C(Cl)(Cn2cncn2)C(F)(F)F)c(F)c1` (centres unmarked) [Example 1, 1-[2-chloro-2-(2,4-difluorophenyl)-3,3,3-trifluoropropyl]-1H-1,2,4-triazole], for which the ED50 under setting [1] stood at 0.15 mg/kg.
